{"source": "paper PMC5218480", "about": "(PLoS ONE, 2017)", "test_system": "MV-4-11 cells", "test": "Gene expression microarray analysis (Affymetrix PrimeView) and GSEA", "format": "cell-based, human", "design": "RFU PODN (11730768_x_at) / Fold change /veh PODN (11730768_x_at) / RFU LINC00158 (11744669_a_at) / Fold change /veh LINC00158 (11744669_a_at) / RFU DUSP10 (11751237_a_at) / Fold change /veh DUSP10 (11751237_a_at) / RFU ID3 (11757404_x_at) / Fold change /veh ID3 (11757404_x_at) / RFU PLEKHG5 (11737974_s_at) / Fold change /veh PLEKHG5 (11737974_s_at) / RFU LRRC4B (11730491_at) / Fold change /veh LRRC4B (11730491_at) / RFU GIMAP4 (11747438_a_at) / Fold change /veh GIMAP4 (11747438_a_at) / RFU KRT8 (11758183_x_at) / Fold change /veh KRT8 (11758183_x_at) / RFU CNN1 (11734310_a_at) / Fold change /veh CNN1 (11734310_a_at) / RFU VPS37D (11726825_at) / Fold change /veh VPS37D (11726825_at) / RFU C10orf10 (11716522_x_at) / Fold change /veh C10orf10 (11716522_x_at) / RFU KIR2DL2 /// KIR2DL4 /// KIR2DL5A /// KIR2DL5B /// KIR2DS1 /// KIR2DS2 /// KIR2DS3 /// KIR2DS4 /// KIR3DL3 /// KIR3DL3 /// KIR3DS1 (11738374_at) / Fold change /veh KIR2DL2 /// KIR2DL4 /// KIR2DL5A /// KIR2DL5B /// KIR2DS1 /// KIR2DS2 /// KIR2DS3 /// KIR2DS4 /// KIR3DL3 /// KIR3DL3 /// KIR3DS1 (11738374_at) / RFU C1QL1 (11718748_at) / Fold change /veh C1QL1 (11718748_at) / RFU TMPRSS4 (11747572_a_at) / Fold change /veh TMPRSS4 (11747572_a_at) / RFU HAMP (11756126_x_at) / Fold change /veh HAMP (11756126_x_at) / RFU RNFT2 (11725882_a_at) / Fold change /veh RNFT2 (11725882_a_at) / RFU NR4A2 (11747474_a_at) / Fold change /veh NR4A2 (11747474_a_at) / RFU ABCC12 (11746883_a_at) / Fold change /veh ABCC12 (11746883_a_at) / RFU TMEM136 (11760407_x_at) / Fold change /veh TMEM136 (11760407_x_at) / RFU CLDN22 /// WWC2 (11732394_at) / Fold change /veh CLDN22 /// WWC2 (11732394_at) / RFU HLA-DPB1 (11760878_x_at) / Fold change /veh HLA-DPB1 (11760878_x_at) / RFU SPINT1 (11716480_a_at) / Fold change /veh SPINT1 (11716480_a_at) / RFU GAP43 (11754022_s_at) / Fold change /veh GAP43 (11754022_s_at) / RFU A4GNT (11735810_at) / Fold change /veh A4GNT (11735810_at) / RFU PRB3 (11715151_x_at) / Fold change /veh PRB3 (11715151_x_at) / RFU TUBB4B (11761932_at) / Fold change /veh TUBB4B (11761932_at) / RFU CAPN14 (11732068_a_at) / Fold change /veh CAPN14 (11732068_a_at) / RFU TMCC2 (11721928_a_at) / Fold change /veh TMCC2 (11721928_a_at) / RFU IRGQ (11745062_a_at) / Fold change /veh IRGQ (11745062_a_at) / RFU FAM174B (11720279_a_at) / Fold change /veh FAM174B (11720279_a_at) / RFU TMPRSS4 (11748680_a_at) / Fold change /veh TMPRSS4 (11748680_a_at) / RFU FAM212B (11763350_a_at) / Fold change /veh FAM212B (11763350_a_at) / RFU PLEKHG5 (11743358_a_at) / Fold change /veh PLEKHG5 (11743358_a_at) / RFU ZSCAN30 (11745921_a_at) / Fold change /veh ZSCAN30 (11745921_a_at) / RFU CMKLR1 (11741424_a_at) / Fold change /veh CMKLR1 (11741424_a_at) / RFU LOC101060620 /// MAPK8IP1 (11723275_at) / Fold change /veh LOC101060620 /// MAPK8IP1 (11723275_at) / RFU SPTSSB (11747773_x_at) / Fold change /veh SPTSSB (11747773_x_at) / RFU PRSS12 (11739890_at) / Fold change /veh PRSS12 (11739890_at) / RFU BIN1 (11741810_x_at) / Fold change /veh BIN1 (11741810_x_at) / RFU WNT11 (11732464_a_at) / Fold change /veh WNT11 (11732464_a_at) / RFU C10orf10 (11716521_a_at) / Fold change /veh C10orf10 (11716521_a_at) / RFU C5orf56 (11738089_at) / Fold change /veh C5orf56 (11738089_at) / RFU CYB561 (11721691_x_at) / Fold change /veh CYB561 (11721691_x_at) / RFU ANKRD19P (11752326_a_at) / Fold change /veh ANKRD19P (11752326_a_at) / RFU OR2T12 /// OR2T33 /// OR2T8 (11738714_s_at) / Fold change /veh OR2T12 /// OR2T33 /// OR2T8 (11738714_s_at) / RFU VCAN (11748164_a_at) / Fold change /veh VCAN (11748164_a_at) / RFU JSRP1 (11732532_at) / Fold change /veh JSRP1 (11732532_at) / RFU KRTAP10-11 (11738290_x_at) / Fold change /veh KRTAP10-11 (11738290_x_at) / RFU MYO3A (11730013_a_at) / Fold change /veh MYO3A (11730013_a_at) / RFU EBF3 (11725865_a_at) / Fold change /veh EBF3 (11725865_a_at) / RFU CAMK2N1 (11719241_x_at) / Fold change /veh CAMK2N1 (11719241_x_at) / RFU C5orf56 (11738088_a_at) / Fold change /veh C5orf56 (11738088_a_at) / RFU OLFML3 (11715873_a_at) / Fold change /veh OLFML3 (11715873_a_at) / RFU LOC100653217 /// NTM (11731650_a_at) / Fold change /veh LOC100653217 /// NTM (11731650_a_at) / RFU MAPK11 (11762145_a_at) / Fold change /veh MAPK11 (11762145_a_at) / RFU FIZ1 (11724087_x_at) / Fold change /veh FIZ1 (11724087_x_at) / RFU OASL (11726364_x_at) / Fold change /veh OASL (11726364_x_at) / RFU SOX15 (11748057_x_at) / Fold change /veh SOX15 (11748057_x_at) / RFU CD79A (11719716_a_at) / Fold change /veh CD79A (11719716_a_at) / RFU HIST1H1D (11736915_at) / Fold change /veh HIST1H1D (11736915_at) / RFU CASKIN2 (11723855_a_at) / Fold change /veh CASKIN2 (11723855_a_at) / RFU LOC730098 (11760151_x_at) / Fold change /veh LOC730098 (11760151_x_at) / RFU OR4N2 (11742367_at) / Fold change /veh OR4N2 (11742367_at) / RFU PRRT2 (11749266_a_at) / Fold change /veh PRRT2 (11749266_a_at) / RFU SNX32 (11753110_a_at) / Fold change /veh SNX32 (11753110_a_at) / RFU CDHR5 (11726645_a_at) / Fold change /veh CDHR5 (11726645_a_at) / RFU RCAN1 (11760418_a_at) / Fold change /veh RCAN1 (11760418_a_at) / RFU FAM167A (11723789_a_at) / Fold change /veh FAM167A (11723789_a_at) / RFU FAM26E (11764081_at) / Fold change /veh FAM26E (11764081_at) / RFU ISYNA1 (11749810_s_at) / Fold change /veh ISYNA1 (11749810_s_at) / RFU ACY1 (11761880_at) / Fold change /veh ACY1 (11761880_at) / RFU 11764098_at / Fold change /veh 11764098_at / RFU SAMD14 (11745864_x_at) / Fold change /veh SAMD14 (11745864_x_at) / RFU NPB (11741838_a_at) / Fold change /veh NPB (11741838_a_at) / RFU TMPRSS6 (11731388_a_at) / Fold change /veh TMPRSS6 (11731388_a_at) / RFU KRTAP10-2 (11738614_at) / Fold change /veh KRTAP10-2 (11738614_at) / RFU ARHGAP8 /// PRR5-ARHGAP8 (11727945_x_at) / Fold change /veh ARHGAP8 /// PRR5-ARHGAP8 (11727945_x_at) / RFU KRTAP5-7 /// NADSYN1 (11734609_at) / Fold change /veh KRTAP5-7 /// NADSYN1 (11734609_at) / RFU RASL12 (11751679_a_at) / Fold change /veh RASL12 (11751679_a_at) / RFU CDKN2B (11736163_a_at) / Fold change /veh CDKN2B (11736163_a_at) / RFU PRF1 (11729649_at) / Fold change /veh PRF1 (11729649_at) / RFU, ZNF638 /// ZNF638-IT1 / Fold change vs veh, ZNF638 /// ZNF638-IT1 / RFU, PANK3 / Fold change vs veh, PANK3 / RFU, SH3YL1 / Fold change vs veh, SH3YL1 / RFU, ZEB2 / Fold change vs veh, ZEB2 / RFU, NRIP1 / Fold change vs veh, NRIP1 / RFU, PTTG1IP / Fold change vs veh, PTTG1IP / RFU, CAPN2 / Fold change vs veh, CAPN2 / RFU, MED14 / Fold change vs veh, MED14 / RFU, SNORA58 / Fold change vs veh, SNORA58 / RFU, C1orf63 / Fold change vs veh, C1orf63 / RFU, LRRFIP1 / Fold change vs veh, LRRFIP1 / RFU, NDUFAF7 / Fold change vs veh, NDUFAF7 / RFU, SLC12A2 / Fold change vs veh, SLC12A2 / RFU, IBTK / Fold change vs veh, IBTK / RFU, ESF1 / Fold change vs veh, ESF1 / Fold change vs veh, TMEM50B / RFU, TAOK1 / Fold change vs veh, TAOK1 / RFU, ACBD3 / Fold change vs veh, ACBD3 / RFU, TMA16 / Fold change vs veh, TMA16 / RFU, RWDD3 / Fold change vs veh, RWDD3 / RFU, BCAT1 / Fold change vs veh, BCAT1 / RFU, EDEM3 / Fold change vs veh, EDEM3 / RFU, TMEM33 / Fold change vs veh, TMEM33 / RFU, WDR75 / Fold change vs veh, WDR75 / RFU, AHCTF1 / Fold change vs veh, AHCTF1 / RFU, TFRC / Fold change vs veh, TFRC / RFU, ZDHHC17 / Fold change vs veh, ZDHHC17 / RFU, NOM1 / Fold change vs veh, NOM1 / RFU, ARL8B / Fold change vs veh, ARL8B / RFU, ZBTB11 / Fold change vs veh, ZBTB11 / RFU, TAMM41 / Fold change vs veh, TAMM41 / RFU, KIAA1704 /// LOC100996395 / Fold change vs veh, KIAA1704 /// LOC100996395 / RFU, ING1 / Fold change vs veh, ING1 / RFU, TRMT61B / Fold change vs veh, TRMT61B / RFU, FUBP3 / Fold change vs veh, FUBP3 / RFU, TP53 / Fold change vs veh, TP53 / RFU, TNKS2 / Fold change vs veh, TNKS2 / RFU, ZFP14 / Fold change vs veh, ZFP14 / RFU, ACTR2 / Fold change vs veh, ACTR2 / RFU, PPP3R1 / Fold change vs veh, PPP3R1 / RFU, PIK3R1 / Fold change vs veh, PIK3R1 / RFU, HNRNPA1 / Fold change vs veh, HNRNPA1 / RFU, RNF170 / Fold change vs veh, RNF170 / RFU, ZNF28 / Fold change vs veh, ZNF28 / RFU, RNGTT / Fold change vs veh, RNGTT / RFU, OGT / Fold change vs veh, OGT / RFU, BRD1 / Fold change vs veh, BRD1 / RFU, MARS / Fold change vs veh, MARS / RFU, ZNF655 / Fold change vs veh, ZNF655 / RFU, FAHD1 / Fold change vs veh, FAHD1 / RFU, BDP1 / Fold change vs veh, BDP1 / RFU, LRRCC1 / Fold change vs veh, LRRCC1 / RFU, ARID1A / Fold change vs veh, ARID1A / RFU, ZNF146 / Fold change vs veh, ZNF146 / RFU, ZNF330 / Fold change vs veh, ZNF330 / RFU, GPN3 / Fold change vs veh, GPN3 / RFU, C9orf123 / Fold change vs veh, C9orf123 / RFU, N4BP2L2 / Fold change vs veh, N4BP2L2 / RFU, ARFIP1 / Fold change vs veh, ARFIP1 / RFU, FAM179B / Fold change vs veh, FAM179B / RFU, BCL10 / Fold change vs veh, BCL10 / RFU, UHRF1BP1L / Fold change vs veh, UHRF1BP1L / RFU, BET1 / Fold change vs veh, BET1 / RFU, CNOT2 / Fold change vs veh, CNOT2 / RFU, ZNF268 / Fold change vs veh, ZNF268 / Fold change vs veh, ZNF507 / RFU, DGCR2 / Fold change vs veh, DGCR2 / RFU, WDSUB1 / Fold change vs veh, WDSUB1 / Fold change vs veh, HSP90B1 /// MIR3652 / RFU, ADSS / Fold change vs veh, ADSS / RFU, GK / Fold change vs veh, GK / RFU, ZNF148 / Fold change vs veh, ZNF148 / RFU, TAF9 / Fold change vs veh, TAF9 / RFU, SLC1A5 / Fold change vs veh, SLC1A5 / RFU, SLMO2 / Fold change vs veh, SLMO2 / RFU, ABCC4 / Fold change vs veh, ABCC4 / RFU, LOC101060439 /// RAP1B / Fold change vs veh, LOC101060439 /// RAP1B / RFU, RFX7 / Fold change vs veh, RFX7 / RFU, GTPBP10 / Fold change vs veh, GTPBP10 / RFU, CNEP1R1 / Fold change vs veh, CNEP1R1 / RFU, BIVM-ERCC5 /// ERCC5 / Fold change vs veh, BIVM-ERCC5 /// ERCC5 / RFU, ILF3 / Fold change vs veh, ILF3 / RFU 11762660_at / Fold change /veh 11762660_at / RFU VCAN (11757783_s_at) / Fold change /veh VCAN (11757783_s_at) / RFU DDX43 (11728927_at) / Fold change /veh DDX43 (11728927_at) / RFU KRT8 (11758188_x_at) / Fold change /veh KRT8 (11758188_x_at) / RFU NKD1 (11759106_at) / Fold change /veh NKD1 (11759106_at) / RFU SRD5A1 (11742802_a_at) / Fold change /veh SRD5A1 (11742802_a_at) / RFU TPSAB1 /// TPSB2 (11721975_s_at) / Fold change /veh TPSAB1 /// TPSB2 (11721975_s_at) / RFU GSTM3 (11746129_a_at) / Fold change /veh GSTM3 (11746129_a_at) / RFU IL23R (11737362_x_at) / Fold change /veh IL23R (11737362_x_at) / RFU TMEM51 (11727254_a_at) / Fold change /veh TMEM51 (11727254_a_at) / RFU PIWIL2 (11732686_x_at) / Fold change /veh PIWIL2 (11732686_x_at) / RFU ORM1 (11744905_x_at) / Fold change /veh ORM1 (11744905_x_at) / RFU CCDC152 (11743942_at) / Fold change /veh CCDC152 (11743942_at) / RFU ECM1 (11717891_a_at) / Fold change /veh ECM1 (11717891_a_at) / RFU IL23R (11748794_a_at) / Fold change /veh IL23R (11748794_a_at) / RFU TNFAIP8L3 (11732012_x_at) / Fold change /veh TNFAIP8L3 (11732012_x_at) / RFU MBOAT4 (11741988_at) / Fold change /veh MBOAT4 (11741988_at) / RFU 11764193_at / Fold change /veh 11764193_at / RFU TMEM53 (11763286_at) / Fold change /veh TMEM53 (11763286_at) / RFU MAGEB2 (11727129_at) / Fold change /veh MAGEB2 (11727129_at) / RFU TMEM200A (11744735_a_at) / Fold change /veh TMEM200A (11744735_a_at) / RFU CCDC152 (11751479_a_at) / Fold change /veh CCDC152 (11751479_a_at) / RFU FAM211A (11726209_a_at) / Fold change /veh FAM211A (11726209_a_at) / RFU RGS16 (11746705_a_at) / Fold change /veh RGS16 (11746705_a_at) / RFU VCAN (11755009_s_at) / Fold change /veh VCAN (11755009_s_at) / RFU RHOB (11743442_s_at) / Fold change /veh RHOB (11743442_s_at) / RFU RGS16 (11720943_a_at) / Fold change /veh RGS16 (11720943_a_at) / RFU RGS16 (11720944_at) / Fold change /veh RGS16 (11720944_at) / RFU, VPS4B / Fold change vs veh, VPS4B / RFU, CREB1 / Fold change vs veh, CREB1 / RFU, DNAJC13 / Fold change vs veh, DNAJC13 / RFU, GNAQ / Fold change vs veh, GNAQ / RFU, CDK5R1 / Fold change vs veh, CDK5R1 / RFU, ZRANB3 / Fold change vs veh, ZRANB3 / RFU, CUL4A / Fold change vs veh, CUL4A / RFU, CCNY / Fold change vs veh, CCNY / RFU, UFL1 / Fold change vs veh, UFL1 / RFU, COG3 / Fold change vs veh, COG3 / RFU, DIAPH2 / Fold change vs veh, DIAPH2 / RFU, SKA2 / Fold change vs veh, SKA2 / RFU, AFF3 / Fold change vs veh, AFF3 / RFU, LMF1 / Fold change vs veh, LMF1 / RFU, IPO11 / Fold change vs veh, IPO11 / RFU, DFFB / Fold change vs veh, DFFB / RFU, FOXP1 / Fold change vs veh, FOXP1 / RFU, CARD8 / Fold change vs veh, CARD8 / RFU, STRN3 / Fold change vs veh, STRN3 / RFU, ADK / Fold change vs veh, ADK / RFU, RASSF2 / Fold change vs veh, RASSF2 / RFU, WIPF1 / Fold change vs veh, WIPF1 / RFU, LARP1B / Fold change vs veh, LARP1B / RFU, RASA1 / Fold change vs veh, RASA1 / RFU, RB1 / Fold change vs veh, RB1 / RFU, PPFIA1 / Fold change vs veh, PPFIA1 / RFU, MAT2A / Fold change vs veh, MAT2A / RFU, CCT5 / Fold change vs veh, CCT5 / RFU, WDR92 / Fold change vs veh, WDR92 / RFU, CUX1 / Fold change vs veh, CUX1 / RFU, TTC7A / Fold change vs veh, TTC7A / RFU, TMEM135 / Fold change vs veh, TMEM135 / RFU, DEPTOR / Fold change vs veh, DEPTOR / RFU, CPM / Fold change vs veh, CPM / RFU, DNAJB6 / Fold change vs veh, DNAJB6 / RFU, CACNA2D3 / Fold change vs veh, CACNA2D3 / RFU, DTX4 / Fold change vs veh, DTX4 / RFU, TFCP2 / Fold change vs veh, TFCP2 / RFU, GMCL1 /// GMCL1P1 / Fold change vs veh, GMCL1 /// GMCL1P1 / RFU, AEBP2 / Fold change vs veh, AEBP2 / RFU, SNHG1 /// SNORD22 /// SNORD25 /// SNORD26 /// SNORD27 /// SNORD28 /// SNORD29 /// SNORD31 / Fold change vs veh, SNHG1 /// SNORD22 /// SNORD25 /// SNORD26 /// SNORD27 /// SNORD28 /// SNORD29 /// SNORD31 / Fold change (Aza/veh), C12orf56 (ProbeSet 11735607_a_at) / Fold change (ACY-1035/veh), C12orf56 (ProbeSet 11735607_a_at) / Fold change (Aza/veh), FGFR1OP (ProbeSet 11751329_s_at) / Fold change (ACY-1035/veh), FGFR1OP (ProbeSet 11751329_s_at) / Fold change (Aza/veh), VPS36 (ProbeSet 11739960_a_at) / Fold change (ACY-1035/veh), VPS36 (ProbeSet 11739960_a_at) / RFU SYPL1 (11715823_x_at) / Fold change /veh SYPL1 (11715823_x_at) / RFU IGFBP7 (11715501_s_at) / Fold change /veh IGFBP7 (11715501_s_at) / RFU REEP3 (11722064_at) / Fold change /veh REEP3 (11722064_at) / RFU IGLL1 (11728026_x_at) / Fold change /veh IGLL1 (11728026_x_at): dose or concentration left out as unconfirmed", "conditions": "ProbeSet 11763895_x_at; LIST B"}
{"molecule": "Nc1ncn([C@@H]2O[C@H](CO)[C@@H](O)[C@H]2O)c(=O)n1", "note": "[azacitidine]", "values": [{"measurement": "RFU, SNORA58", "result": 17.25, "unit": "RFU"}]}
